What all share (assay type): cell-based
The subject of one experiment is AR / CBP ternary complex. Kind of experiment: Ternary complex formation assay (sandwich ELISA, AR capture / CBP detection) in VCaP cell lysates. As to conditions: 1.5 hours treatment, sandwich ELISA (AR capture, CBP or p300 detection). The method in brief: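 VCaP cells (50K/well, 5% charcoal-stripped FBS, ≥3 days) treated with bifunctional compound for 1.5 h, then lysed 30 min at 4 °C. AR captured on anti-AR (AR 441) plates; bound CBP or p300 detected by rabbit mAb plus HRP secondary. QuantaRed chemifluorescence read at ex 570/em 585, immediately and at 5 and 15 min.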
For orientation: An ELISA detects its analyte on a solid surface through an enzyme-linked reagent.

The test system of a further experiment is VCaP cells. Kind of experiment: VCaP growth inhibition assay. As to conditions: 30 pM R1881, 9 days, CTG. The method in brief: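 VCaP cells in phenol red-free DMEM/5% CSS, pre-incubated 72 h, then stimulated with R1881 (final 30 pM) and treated with 1:5 serial dilutions (final 100 nM to 10 fM) for 9 days at 37 °C. Viability by CellTiter-Glo luminescence; IC50 from 4-parameter logistic fit of RLU vs concentration.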

Another experiment concerns HEK-293 cells. Kind of experiment: HEK-293 growth inhibition assay. The following applies: 3 days, CTG. How it is done:
Cluster plates are returned to the incubator (37*C/5% CO2) for 24 hours prior to treatment. […] Cluster plates are returned to the incubator for 3 days.
After the 3-day treatment period, 100 uL media was removed from each well by aspiration and 100 uL room temperature CTG reagent (Promega Cat #G7573) is added back to each well. The cluster plates are placed on a shaker and incubated at room temperature for 20 minutes. Following this shaking/incubation, cluster plates are read on a luminometer (BMG ClarioStar). IC50 values are obtained by graphing the RLU data vs. compound concentration with nonlinear regression 4-parameter logistic curves (GraphPad Prism).

In general, EC50 refers to the concentration giving half of the maximal effect. A low value points to greater potency. As usually defined, the IC50 is the concentration needed to halve the response being measured. Higher therefore signals weaker potency in that assay. `CC(=O)N1CCc2c(c(-c3cccc4cc(-c5ccc(OCc6ncc(C(=O)NC7C(C)(C)C(Oc8ccc(C#N)c(Cl)c8)C7(C)C)cn6)nc5)ncc34)nn2C2CCOCC2)C1` (stereo not shown) [Compound 72, 2-[[5-[8-(5-acetyl-1-tetrahydropyran-4-yl-6,7-dihydro-4H-pyrazolo[4,3-c]pyridin-3-yl)-3-isoquinolyl]-2-pyridyl]oxymethyl]-N-[3-(3-chloro-4-cyano-phenoxy)-2,2,4,4-tetramethyl-cyclobutyl]pyrimidine-5-carboxamide]: the concentration giving a half-maximal response (EC50) with AR / CBP ternary complex is less than 1 nM. The IC50 is 0.1 to 1 nM with VCaP cells and greater than 10000 nM in the experiment with HEK-293 cells.
For `CC(=O)N1CCc2c(c(-c3cccc4cc(-c5ccc(C(=O)NCCCc6ncc(C(=O)NC7C(C)(C)C(Oc8ccc(C#N)c(Cl)c8)C7(C)C)cn6)nc5)ncc34)nn2C2CCOCC2)C1` (stereo not shown) [Compound 77, 2-[3-[[5-[8-(5-acetyl-1-tetrahydropyran-4-yl-6,7-dihydro-4H-pyrazolo[4,3-c]pyridin-3-yl)-3-isoquinolyl]pyridine-2-carbonyl]amino]propyl]-N-[3-(3-chloro-4-cyano-phenoxy)-2,2,4,4-tetramethyl-cyclobutyl]pyrimidine-5-carboxamide], the EC50 with AR / CBP ternary complex was less than 1 nM. In addition, the IC50 with VCaP cells was 0.1 to 1 nM; in the experiment with HEK-293 cells, greater than 10000 nM.
In the experiment with AR / CBP ternary complex, `CNC(=O)N1CCc2c(c(N3CCCc4cc(-c5cnn(C)c5)c(C(F)F)cc43)nn2C2CCN(Cc3ncc(C(=O)NC4C(C)(C)C(Oc5ccc(C#N)c(Cl)c5)C4(C)C)cn3)CC2)C1` (stereo not shown) [Compound 91, 1-[1-[[5-[[3-(3-chloro-4-cyano-phenoxy)-2,2,4,4-tetramethyl-cyclobutyl]carbamoyl]pyrimidin-2-yl]methyl]-4-piperidyl]-3-[7-(difluoromethyl)-6-(1-methylpyrazol-4-yl)-3,4-dihydro-2H-quinolin-1-yl]-N-methyl-6,7-dihydro-4H-pyrazolo[4,3-c]pyridine-5-carboxamide] registered an EC50 greater than 100 nM. In addition, the values for the IC50 in the experiment with VCaP cells and in the experiment on HEK-293 cells were greater than 100 nM and greater than 10000 nM, respectively.
Molecule `COc1cc(OC2C(C)(C)C(NC(=O)c3cnc(N4CCC(CN5CCC(n6nc(N7CCCc8cc(-c9cnn(C)c9)c(C(F)F)cc87)c7c6CCN(C(C)=O)C7)CC5)C(C)(C)C4)nc3)C2(C)C)ccc1C#N` (stereo not shown) [Compound 360, 2-[4-[[4-[5-acetyl-3-[7-(difluoromethyl)-6-(1-methylpyrazol-4-yl)-3,4-dihydro-2H-quinolin-1-yl]-6,7-dihydro-4H-pyrazolo[4,3-c]pyridin-1-yl]-1-piperidyl]methyl]-3,3-dimethyl-1-piperidyl]-N-[3-(4-cyano-3-methoxy-phenoxy)-2,2,4,4-tetramethyl-cyclobutyl]pyrimidine-5-carboxamide] displayed an EC50 with AR / CBP ternary complex of less than 1 nM. Further, the IC50 in the experiment on VCaP cells was no more than 0.1 nM; in the experiment with HEK-293 cells, greater than 1000 nM.
With `CC(=O)N1CCc2c(c(-c3cccc4cc(-c5ccc(C(=O)NCC6CCN(c7ncc(C(=O)NC8C(C)(C)C(Oc9ccc(C#N)c(Cl)c9)C8(C)C)cn7)CC6)nc5)ncc34)nn2C2CCOCC2)C1` (stereo not shown) [Compound 110, 2-[4-[[[5-[8-(5-acetyl-1-tetrahydropyran-4-yl-6,7-dihydro-4H-pyrazolo[4,3-c]pyridin-3-yl)-3-isoquinolyl]pyridine-2-carbonyl]amino]methyl]-1-piperidyl]-N-[3-(3-chloro-4-cyano-phenoxy)-2,2,4,4-tetramethyl-cyclobutyl]pyrimidine-5-carboxamide], the values for the IC50 with VCaP cells and in the experiment on HEK-293 cells were no more than 0.1 nM and greater than 10000 nM, respectively.
With `CC(=O)N1CCc2c(c(N3CCCc4cc(-c5cnn(C)c5)c(C(F)F)cc43)nn2C2CC3(C2)CN(CC2CC4(C2)CN(c2ncc(C(=O)NC5C(C)(C)C(Oc6ccc(C#N)c(Cl)c6)C5(C)C)cn2)C4)C3)C1` (stereo not shown) [Compound 216, 2-[6-[[6-[5-acetyl-3-[7-(difluoromethyl)-6-(1-methylpyrazol-4-yl)-3,4-dihydro-2H-quinolin-1-yl]-6,7-dihydro-4H-pyrazolo[4,3-c]pyridin-1-yl]-2-azaspiro[3.3]heptan-2-yl]methyl]-2-azaspiro[3.3]heptan-2-yl]-N-[3-(3-chloro-4-cyano-phenoxy)-2,2,4,4-tetramethyl-cyclobutyl]pyrimidine-5-carboxamide], the EC50 with AR / CBP ternary complex was less than 1 nM. The IC50 with VCaP cells is no more than 0.1 nM.

The values above are taken from US20250129070A1, “BIFUNCTIONAL ANDROGEN RECEPTOR COMPOUNDS” (priority 2023, published 2025).
